Several values for one entry are separate records, joined by “and”; a condition that tells them apart may be missing. Equal entries are not always repeated.
What was measured:
[1] = test system: 22Rv1 cells; assay: Growth curves of PCa cells (cell counter); assay type: cell-based; details: DHT 1 nM + antiandrogen 10 μM; six days of culture
Description: The cells were trypsinized and counted using a cell counter after six days of culture. Relative cell count=number of cells at each time point÷number of cells at 0 h. Data represent technical triplicates±SD.

[2] = test system: AR transcriptional activity in 22Rv1-GFP cells; details: DHT 1 nM + antiandrogen 10 μM; 48 h
Description: (§1) (A) Scheme for targeting spiked PCa cells from urine. (B) PCa cells (22Rv1 stably expressing mCherry) were spiked in the urine of an healthy individual. […] Seventy-two hours after infection the cells were imaged by adding D-luciferin substrate and with an exposure time of 5 min per image using the bioluminescence microscope. […] Urine samples from healthy patients were spiked with 250 PCa cells stably expressing GFP (22Rv1-GFP or LAPC4-GFP). Urine was spun down to collect all the cells. These cells were infected with 5×10^5 virus particles of PCA3-Cre-PSEBC-ITSTA. […] Forty-eight hours post treatment imaging was repeated to assess response on the same cells to determine change in luciferase expression. Relative grey intensity=((sum grey intensity per ROI−sum grey intensity of background)÷sum grey intensity at 0 h)×100).
(§2) Urine samples from healthy patients were spiked with 250 PCa cells stably expressing GFP (22Rv1-GFP or LAPC4-GFP). Urine was spun down to collect all the cells. These cells were infected with 5×10^5 virus particles of PCA3-Cre-PSEBC-ITSTA. […] Forty-eight hours post treatment imaging was repeated to assess response on the same cells to determine change in luciferase expression. Relative grey intensity=((sum grey intensity per ROI−sum grey intensity of background)÷sum grey intensity at 0 h)×100).

[3] = test system: AR transcriptional activity in LAPC4-GFP cells; details: 48 h
Description: as §1, §2

[4] = test system: AR transcriptional activity in PCa cells from urine/bladder wash of patients
Source text: (A) & (B) Images show the H&E staining and IHC using anti-PSA for castration sensitive prostate cancer (CSPC) and castration resistance prostate cancer (CRPC) patients, case 9 and 11 respectively. (C), (D), (E) & (F) Graphs show single cell response to treatment detected with PCA3-Cre-PSEBC-ITSTA in PCa cells from case 9 and 11. Urine/bladder wash from patients post-DRE was sampled and spun down to collect all the cells. These cells were infected with 5×10^5 virus particles of PCA3-Cre-PSEBC-ITSTA. […] Forty-eight hours post treatment imaging was repeated to assess response on the same cells to determine change in expression. Relative grey intensity=((sum grey intensity per ROI−sum grey intensity of background)÷ sum grey intensity at 0 h)×100).
(D) Images show the H&E staining and IHC using anti-PSA for castration resistance prostate cancer (CRPC) patients 11. […] Urine or bladder wash from patients was sampled and spun down to collect all the cells. These cells were infected with 5×10^5 virus particles of PCA3-Cre-PSEBC-ITSTA. […] Forty-eight hours post treatment imaging was repeated to assess response on the same cells.
Forty-eight hours later, single cell bioluminescence was measured again. Single cell response to antiandrogen was determined and cells were considered as resistant if luciferase activity increased despite antiandrogen treatment.
Forty-eight hours post-treatment, single cell bioluminescence was measured again. For case 22, sampling was done as a naïve state before any treatment was received. Similar analysis as cell lines was performed.
The above described procedure for isolation was used to isolate cells from these samples. The samples were then infected with 5×10^5 ivp of PCA3-Cre-PSEBC-TSTA-fl adenovirus. […] Forty-eight hours later, bioluminescence imaging was repeated on the same cells. Percentage of targeted cells=(number bioluminescence positive cells÷number m-cherry positive cells)×100. The sum of gray intensity values was determined for single cells before and after treatment using CellSens software. Relative gray intensity=((sum gray intensity per ROI−sum gray intensity of background)÷sum gray intensity at 0 h)×100).

[5] = test system: AR activity in LAPC4-GFP single cells; assay: Single cell treatment response, PSEBC-TSTA bioluminescence microscopy; assay type: cell-based; details: for cells with decrease in fl activity / cells with increase in fl activity: n=10 cells, 48 h treatment, DHT 1 nM or DHT+Enz 1 nM+10 μM
Description: Forty-eight hours post-infection, the cells were imaged after D-luciferin addition. […] GFP biofluorescence imaging was then performed every 5 h to track the cells. After 48 hours of treatment, luciferase imaging was repeated to determine the change in fl expression. […] The corresponding cells tracked and imaged by biofluorescence microscopy is also shown. […] LAPC4-GFP cells were infected with PCA3-3STA, treated and imaged as described in (A). (D) Upper panel: Scheme of the method used to isolate and image spiked PCa cells from blood. […] Every 5 h, GFP biofluorescence imaging was performed to track the cells. At 48 h, luminescence imaging was repeated to determine single cell fl expression changes. Lower panels: Biofluorescence and bioluminescence images of blood spiked-LAPC4-GFP cells transduced with PSEBC-TSTA after PCa cell isolation. (E) Bioluminescence microscopy quantification of single cell responses to AR-antagonists after PSEBC-TSTA transduction of PCa spiked cells (LAPC4-GFP). Relative grey intensity=((sum grey intensity per ROI−sum grey intensity of background)÷sum grey intensity at 0 h)×100. Data represent technical triplicates±SD.
Forty-eight hours after infection, the cells were imaged by adding D-luciferin and an exposure time of 15 secs per image under bioluminescence microscopy. […] GFP biofluorescence imaging was performed every 5 h to track the cells. After 48 hours, luminescence imaging was performed again on the same cells to determine the changes in fl activity. Relative grey intensity was quantified for n=10 cells in each treatment condition before and after treatment. Relative grey intensity=((sum grey intensity per ROI−sum grey intensity of background)÷sum grey intensity at 0 h)×100. Each ROI defines a single cell.
To track the change in position and growth of single cells in which fl activity was measured, biofluorescence microscopy imaging was performed every 5 h for 48 h (GFP-positive cells) after which time bioluminescence imaging and quantification were repeated on the same cells. Sum grey intensity was then determined for single cells before and after treatment using the cellSens soft-ware. Relative grey intensity=((sum grey intensity per ROI−sum grey intensity of background)÷sum grey intensity at 0 h)×100.

[6] = test system: 22Rv1 cells; assay: Viability assay (resazurin); assay type: cell-based; details: DHT 1 nM + antiandrogen 10 μM
Description: (§3) LAPC4, and 22Rv1 cells were seeded. […] The cells proliferation was measured using resazurin. Relative cell count=(Fluorescence at each time point÷fluorescence at 0 h). Data represents technical triplicates±SD.

[7] = test system: LAPC4 cells; assay: Viability assay (resazurin); assay type: cell-based; details: DHT 1 nM + antiandrogen 10 μM
Description: as §3

[8] = test system: AR transcription in LNCaP-GFP cells; assay: Single cell treatment response of spiked cells isolated from blood, PSEBC-TSTA; assay type: cell-based; details: DHT+Enz 1 nM+10 μM; 48 h
Description: FIG. 15 LNCaP cells displaying greater cell-to-cell AR-transcriptional homogeneity upon treatment when compared to LAPC4 cells. […] Forty-eight hours after infection, the cells were imaged after an exposure time of 15 secs per image under bioluminescence microscopy. […] Biofluorescence microscopy imaging was performed for each well for 48 h, with images taken every 5 h to track the cells. Luciferase imaging was performed again on the same cells to determine the change in fl expression.
Blood was collected from a healthy donor and placed in a heparin-coated tube. This study was approved by the Institutional Review Board of the CHU de Quebec Hospital, Quebec, QC, Canada. Informed consent was obtained by the donor for blood sampling. All experiments were performed in accordance with relevant guidelines and regulations. LAPC4 and LNCaP cells were added to the blood sample (500 cells/3 ml of blood), followed by a custom-made RosetteSep cocktail ([…] Technologies, Vancouver, BC, Canada) at a volume of 50 μl per ml. The sample was gently mixed and incubated thereafter at room temperature for 20 min. Fifteen milliliters of Ficoll-Paque Plus (GE healthcare Life Sciences, Mississauga, ON, Canada) were then placed in a 50 ml SepMate tube ([…] Technologies) 31 and blood was poured gently along the walls of the tube onto the Ficoll layer. […]

| Compound | growth inhibition (relative cell count) [1] | percentage of cells with increased activity relative to DHT treated group [2] [%] | cells with decrease in luciferase activity ([3]; DHT 1 nM + Bic 10 μM) [%] | cells with increase in luciferase activity ([3]; DHT 1 nM + Bic 10 μM) [%] | percentage of cells with increased activity relative to DHT treated group ([3]; DHT 1 nM + antiandrogen 10 μM) [%] | cells with decrease in PSEBC activity [4] | cells with increase in fl expression [4] [%] | level of AR activity of AR active cells (relative mean luminescence activity per cell) [4] [%] | urine PCa cells with increase in PSEBC promoter dependent fl activity compared to DHT only group [4] | urine tumor cells AR active (relative fraction of AR active cells) [4] [%] | induction of sum of fl activity of ten single cells ([5]; DHT 1 nM, 48 h) [fold] | cells with decrease in fl activity [5] [%] | cells with increase in fl activity [5] [%] | growth inhibition (resazurin proliferation) [6] | growth inhibition (resazurin proliferation) [7] | effect on DHT induction of sum of fl activity of ten single cells ([5]; DHT 1 nM + antiandrogen 10 μM, 48 h) | single cell AR transcriptional response pattern [8] |
| --- | --- | --- | --- | --- | --- | --- | --- | --- | --- | --- | --- | --- | --- | --- | --- | --- | --- |
| CC(O)(CS(=O)(=O)c1ccc(F)cc1)C(=O)Nc1ccc(C#N)c(C(F)(F)F)c1 (centres unmarked) [Bic, bicalutamide] | not inhibited | 114 | 60 | 40 | 14 | 80% and 60% | 50 | 418.5 | 44% and 67% | 63 | – | – | – | – | – | – | – |
| C[C@]12CCC(=O)C[C@@H]1CC[C@@H]1[C@@H]2CC[C@]2(C)[C@@H](O)CC[C@@H]12 [DHT, dihydrotestosterone] | – | – | – | – | – | 60% | – | – | – | – | 8.8 | 20 | 80 | – | – | – | – |
| CNC(=O)c1ccc(N2C(=S)N(c3ccc(C#N)c(C(F)(F)F)c3)C(=O)C2(C)C)cc1F [Enz, enzalutamide] | – | – | – | – | – | – | – | – | – | – | – | 70 | 30 | did not display inhibited growth | displayed inhibited growth | inhibited | homogeneous response |

— patent US20200140951A9, “Transcriptional system and uses thereof for single cell detection” (Université Laval, priority 2017, published 2020)
